Data reported in the supplement of paper PMC10307832.

What was measured:
Test in all cases: relative viability (nuclei count vs DMSO), 5 days (fraction); higher = more cells survive
[1] = tested on: HCC-44
Method in brief: (§1)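 Medians of duplicate plates are given as relative viability. That measure is the nuclei count in treated wells divided by the count in vehicle wells. Counts were taken on 4× images of lung cancer cell lines in 1536-well plates, 5 days after pin-tool dosing the day after seeding with one drug alone or a fixed anchor-drug dose plus five library-drug doses (not always all listed) in √10 steps.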

[2] = tested on: SW 1573
Method in brief: as §1

[3] = tested on: H3255
Method in brief: as §1

[4] = tested on: NCI-H596
Method in brief: as §1

[5] = tested on: NCI-H1793
Method in brief: as §1

[6] = tested on: LU99A
Method in brief: as §1

[7] = tested on: COR-L23
Method in brief: as §1

[8] = tested on: LK-2
Method in brief: as §1

[9] = tested on: PC-14
Method in brief: as §1

[10] = tested on: NCI-H460
Method in brief: as §1

[11] = tested on: NCI-H1650
Method in brief: as §1

[12] = tested on: 201T
Method in brief: as §1

[13] = tested on: NCI-H727
Method in brief: as §1

[14] = tested on: NCI-H2347
Method in brief: as §1

[15] = tested on: NCI-H23
Method in brief: as §1

[16] = tested on: NCI-H2228
Method in brief: as §1

[17] = tested on: LC-2-ad
Method in brief: as §1

[18] = tested on: A-427
Method in brief: as §1

[19] = tested on: LCLC-97TM1
Method in brief: as §1

Cc1sc2c(c1C)C(c1ccc(Cl)cc1)=N[C@@H](CC(=O)OC(C)(C)C)c1nnc(C)n1-2 [JQ1] + CC1(C)CCC(c2ccc(Cl)cc2)=C(CN2CCN(c3ccc(C(=O)NS(=O)(=O)c4ccc(N[C@H](CCN5CCOCC5)CSc5ccccc5)c(S(=O)(=O)C(F)(F)F)c4)cc3)CC2)C1 [Navitoclax] (partner 0.5 µM) was tested, and the relative viability ([1]; first compound 0.04 µM) was 1.02, the relative viability ([1]; first compound 0.1265 µM) was 0.802 and the relative viability ([1]; first compound 0.4 µM) was 0.705. For the same molecule, the relative viability ([1]; first compound 1.265 µM) was 0.265, the relative viability ([1]; first compound 4 µM) was 0.389 and the relative viability ([2]; first compound 0.04 µM) was 0.984. It also gave a relative viability ([2]; first compound 0.1265 µM) of 0.756, a relative viability ([2]; first compound 0.4 µM) of 0.827 and a relative viability ([2]; first compound 1.265 µM) of 0.536. For the same molecule, the relative viability ([2]; first compound 4 µM) was 0.239, the relative viability ([3]; first compound 0.04 µM) was 0.495 and the relative viability ([3]; first compound 0.1265 µM) was 0.441. It also gave a relative viability ([3]; first compound 0.4 µM) of 0.566, a relative viability ([3]; first compound 1.265 µM) of 0.268 and a relative viability ([3]; first compound 4 µM) of 0.258. The relative viability ([4]; first compound 0.04 µM) was 1.17, the relative viability ([4]; first compound 0.1265 µM) was 1.03 and the relative viability ([4]; first compound 0.4 µM) was 0.421. The relative viability ([4]; first compound 1.265 µM) was 0.236, the relative viability ([4]; first compound 4 µM) was 0.23 and the relative viability ([5]; first compound 0.04 µM) was 0.408. It also gave a relative viability ([5]; first compound 0.1265 µM) of 0.345, a relative viability ([5]; first compound 0.4 µM) of 0.515 and a relative viability ([5]; first compound 1.265 µM) of 0.444. For the same molecule, the relative viability ([5]; first compound 4 µM) was 0.377, the relative viability ([6]; first compound 0.04 µM) was 0.746 and the relative viability ([6]; first compound 0.1265 µM) was 0.699. For the same molecule, the relative viability ([6]; first compound 0.4 µM) was 0.201, the relative viability ([6]; first compound 1.265 µM) was 0.137 and the relative viability ([6]; first compound 4 µM) was 0.146. For the same molecule, the relative viability ([7]; first compound 0.04 µM) was 1.02, the relative viability ([7]; first compound 0.1265 µM) was 0.763 and the relative viability ([7]; first compound 0.4 µM) was 0.858. The relative viability ([7]; first compound 1.265 µM) was 0.357, the relative viability ([7]; first compound 4 µM) was 0.155 and the relative viability ([8]; first compound 0.04 µM) was 0.89. The relative viability ([8]; first compound 0.1265 µM) was 0.785, the relative viability ([8]; first compound 0.4 µM) was 0.562 and the relative viability ([8]; first compound 1.265 µM) was 0.255. The relative viability ([8]; first compound 4 µM) was 0.243, the relative viability ([9]; first compound 0.04 µM) was 0.944 and the relative viability ([9]; first compound 0.1265 µM) was 0.957. It also gave a relative viability ([9]; first compound 0.4 µM) of 0.937, a relative viability ([9]; first compound 1.265 µM) of 0.672 and a relative viability ([9]; first compound 4 µM) of 0.303. It also gave a relative viability ([10]; first compound 0.04 µM) of 1.02, a relative viability ([10]; first compound 0.1265 µM) of 0.671 and a relative viability ([10]; first compound 0.4 µM) of 0.499. It also gave a relative viability ([10]; first compound 1.265 µM) of 0.0782, a relative viability ([10]; first compound 4 µM) of 0.0465 and a relative viability ([11]; first compound 0.04 µM) of 1.09. For the same molecule, the relative viability ([11]; first compound 0.1265 µM) was 0.998, the relative viability ([11]; first compound 0.4 µM) was 0.655 and the relative viability ([11]; first compound 1.265 µM) was 0.24. For the same molecule, the relative viability ([11]; first compound 4 µM) was 0.169, the relative viability ([12]; first compound 0.04 µM) was 1.23 and the relative viability ([12]; first compound 0.1265 µM) was 0.977. For the same molecule, the relative viability ([12]; first compound 0.4 µM) was 1.15, the relative viability ([12]; first compound 1.265 µM) was 0.842 and the relative viability ([12]; first compound 4 µM) was 0.618. For the same molecule, the relative viability ([13]; first compound 0.04 µM) was 0.436, the relative viability ([13]; first compound 0.1265 µM) was 0.453 and the relative viability ([13]; first compound 0.4 µM) was 0.291. For the same molecule, the relative viability ([13]; first compound 1.265 µM) was 0.209, the relative viability ([13]; first compound 4 µM) was 0.252 and the relative viability ([14]; first compound 0.04 µM) was 0.782. The relative viability ([14]; first compound 0.1265 µM) was 0.691, the relative viability ([14]; first compound 0.4 µM) was 0.571 and the relative viability ([14]; first compound 1.265 µM) was 0.316. For the same molecule, the relative viability ([14]; first compound 4 µM) was 0.286, the relative viability ([15]; first compound 0.04 µM) was 0.687 and the relative viability ([15]; first compound 0.1265 µM) was 0.781. It also gave a relative viability ([15]; first compound 0.4 µM) of 0.62, a relative viability ([15]; first compound 1.265 µM) of 0.395 and a relative viability ([15]; first compound 4 µM) of 0.144. For the same molecule, the relative viability ([16]; first compound 0.04 µM) was 1.13, the relative viability ([16]; first compound 0.1265 µM) was 0.671 and the relative viability ([16]; first compound 0.4 µM) was 0.667. The relative viability ([16]; first compound 1.265 µM) was 0.557, the relative viability ([16]; first compound 4 µM) was 0.308 and the relative viability ([17]; first compound 0.04 µM) was 0.486. The relative viability ([17]; first compound 0.1265 µM) was 0.58, the relative viability ([17]; first compound 0.4 µM) was 0.376 and the relative viability ([17]; first compound 1.265 µM) was 0.196. It also gave a relative viability ([17]; first compound 4 µM) of 0.175, a relative viability ([18]; first compound 0.04 µM) of 0.997 and a relative viability ([18]; first compound 0.1265 µM) of 0.974. The relative viability ([18]; first compound 0.4 µM) was 1, the relative viability ([18]; first compound 1.265 µM) was 0.854 and the relative viability ([18]; first compound 4 µM) was 0.784. It also gave a relative viability ([19]; first compound 0.1265 µM) of 0.329, a relative viability ([19]; first compound 0.4 µM) of 0.403 and a relative viability ([19]; first compound 1.265 µM) of 0.175. It also gave a relative viability ([19]; first compound 4 µM) of 0.152.
